From patent US7294639B2, “Biaromatic ligand activators of PPARγ receptors” (Galderma Research & Development, priority 2001, dated 2007)

How the values were obtained:
[1] = biological target: T1, chimeric Gal-PPARγ receptor (LBD) (Homo sapiens, UniProt P37231); assay: Transactivation test, PPARγ agonist activity (luciferase); format: cell-based; details: concentration giving 50% activation relative to the reference agonist
T1 construct: chimeric Gal-PPARγ receptor (LBD); expressed in transfected cells; host or cells: HeLa cells, stably transfected
T1 sequence (P37231 238-503 limits assumed): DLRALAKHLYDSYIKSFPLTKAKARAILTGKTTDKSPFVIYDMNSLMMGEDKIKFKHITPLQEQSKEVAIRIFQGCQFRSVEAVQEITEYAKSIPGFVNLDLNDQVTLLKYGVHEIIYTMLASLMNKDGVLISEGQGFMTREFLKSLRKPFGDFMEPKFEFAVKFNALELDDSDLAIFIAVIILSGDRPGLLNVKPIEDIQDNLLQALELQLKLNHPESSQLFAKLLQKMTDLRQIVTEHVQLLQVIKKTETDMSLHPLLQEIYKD
Method: The agonist activity towards the PPARγ receptors of the compounds according to the invention may be evaluated by transactivation tests.
The capacity of the molecules to activate and/or inhibit the PPARγ receptors is evaluated from Hela cells stably transfected with the chimeric Gal-PPARγ receptor (LBD).
96-well plates are inoculated at the rate of 10000 cells/100 μl/well in DMEM 10% SDL medium and then placed for 24 hours at 37° C., 7% CO2.
To determine the PPARγ agonist activity, the cells are then treated by addition of 5 μl/well of the molecules to be tested at the final concentration of 1 μM. Cells are also treated in parallel with a reference agonist, (−)-3-{4-[2-(benzooxazol-2-ylmethylamino)ethoxy]phenyl}-2-ethoxypropionic acid, 1 μM.
After another incubation of 24 hours at 37° C., 7% CO2, a luciferase assay is carried out with the aid of the “Steady-Glo Luciferase Assay System” kit from Promega. The luminescence is counted on a Microbeta Trilux microplate reader (Wallac).
The agonist activity of the test product will be expressed as a percentage activation relative to the control agonist, the reference agonist at 1 μM.
The AC50, expressed in nM, is determined as the concentration which makes it possible to obtain 50% activation of the basal signal relative to the reference agonist.

[2] = biological target: T2, human PPARγ receptor (Homo sapiens, UniProt P37231); assay: Binding test by competition with tritiated reference agonist (hydroxyapatite gel); details: hPPARγ/RXRα heterodimers from SF9 insect cells
T2 construct: made in house; host or cells: SF9 insect cells, recombinant baculovirus
Method: The affinity of the compounds of the invention for the human PPARγ receptor was determined in a test of binding, by competition for the attachment of a reference agonist, the following tritiated compound 5-{4-[2-(methylpyridin-2-ylamino)ethoxy]benzyl}thiazolidine-2,4-dione.
The receptors are obtained by infecting SF9 insect cells with a recombinant bacculovirus. They exist in the form of hPPARγ/RXRα heterodimers. The presence of RXRα increases the solubility and the stability of the hPPARγ receptor and, consequently, its biological activity, without as a result interfering in the determination of the binding constants.
The technique of adsorption on hydroxyapatite gel was used to separate the ligand bound to the receptor from the free ligand. The results are expressed as Kd value (nM) which represents the dissociation constant at equilibrium obtained for each compound.

T2 sequence (P19793 whole entry): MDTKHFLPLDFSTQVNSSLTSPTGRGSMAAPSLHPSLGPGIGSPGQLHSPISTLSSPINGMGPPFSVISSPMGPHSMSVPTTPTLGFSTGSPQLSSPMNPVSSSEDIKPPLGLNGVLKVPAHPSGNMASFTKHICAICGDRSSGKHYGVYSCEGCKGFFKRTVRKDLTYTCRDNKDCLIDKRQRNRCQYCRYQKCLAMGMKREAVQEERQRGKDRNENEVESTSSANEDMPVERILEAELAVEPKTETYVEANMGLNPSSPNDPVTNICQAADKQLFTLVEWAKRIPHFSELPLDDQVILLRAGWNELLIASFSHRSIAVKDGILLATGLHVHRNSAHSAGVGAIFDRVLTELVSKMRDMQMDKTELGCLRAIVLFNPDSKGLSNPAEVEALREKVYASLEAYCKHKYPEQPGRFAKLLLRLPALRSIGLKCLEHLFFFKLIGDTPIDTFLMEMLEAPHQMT
T2 sequence (P37231 whole entry): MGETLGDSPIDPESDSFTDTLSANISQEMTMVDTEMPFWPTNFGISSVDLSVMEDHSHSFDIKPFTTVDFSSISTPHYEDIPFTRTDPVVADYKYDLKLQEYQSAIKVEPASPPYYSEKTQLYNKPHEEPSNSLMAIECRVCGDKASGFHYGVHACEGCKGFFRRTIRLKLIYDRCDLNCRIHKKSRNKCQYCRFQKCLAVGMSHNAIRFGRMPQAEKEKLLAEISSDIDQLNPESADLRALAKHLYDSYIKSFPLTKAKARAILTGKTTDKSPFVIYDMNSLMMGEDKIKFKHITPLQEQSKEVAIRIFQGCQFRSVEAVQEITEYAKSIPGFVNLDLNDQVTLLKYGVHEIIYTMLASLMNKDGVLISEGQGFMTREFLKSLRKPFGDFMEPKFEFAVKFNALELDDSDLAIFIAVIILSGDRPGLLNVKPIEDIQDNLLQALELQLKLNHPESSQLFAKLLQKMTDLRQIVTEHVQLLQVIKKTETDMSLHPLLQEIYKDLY

## COC(=O)CCCCCCCCC(=O)N(C)Cc1cccc(-c2ccc(CC3SC(=O)NC3=O)cc2)c1 (centres unmarked) [Example 2, methyl 9-{[4′-(2,4-dioxothiazolidin-5-ylmethyl)biphenyl-3-ylmethyl]methylcarbamoyl}nonanoate]
[1]
  AC50: 55.5 nM

## COC(=O)c1ccc(C(=O)N(C)Cc2cccc(-c3ccc(CC4SC(=O)NC4=O)cc3)c2)cc1 (centres unmarked) [Example 3, methyl N-[4′-(2,4-dioxothiazolidin-5-ylmethyl)biphenyl-3-ylmethyl]-N-methylterephthalamate]
[1]
  AC50: 13.1 nM
[2]
  Kd: 375 nM

## CN(Cc1cccc(-c2ccc(CC3SC(=O)NC3=O)cc2)c1)C(=O)CCC1CCCC1 (centres unmarked) [Example 4, 3-cyclopentyl-N-[4′-(2,4-dioxothiazolidin-5-ylmethyl)biphenyl-3-ylmethyl]-N-methylpropionamide]
[1]
  AC50: 24.2 nM
[2]
  Kd: 250 nM

## CN(Cc1cccc(-c2ccc(CC3SC(=O)NC3=O)cc2)c1)C(=O)c1cccc2ccccc12 (centres unmarked) [Example 5, N-[4′-(2,4-dioxothiazolidin-5-ylmethyl)biphenyl-3-ylmethyl]-N-methylnaphthalene-1-carboxamide]
[1]
  AC50: 23.3 nM
[2]
  Kd: 500 nM

## CN(Cc1cccc(-c2ccc(CC3SC(=O)NC3=O)cc2)c1)C(=O)c1ccc2ccccc2c1 (centres unmarked) [Example 6, N-[4′-(2,4-dioxothiazolidin-5-ylmethyl)biphenyl-3-ylmethyl]-N-methylnaphthalene-2-carboxamide]
[1]
  AC50: 4 nM
[2]
  Kd: 60 nM

## CN(Cc1cccc(-c2ccc(CC3SC(=O)NC3=O)cc2)c1)C(=O)COc1ccccc1 (centres unmarked) [Example 7, N-[4′-(2,4-dioxothiazolidin-5-ylmethyl)biphenyl-3-ylmethyl]-N-methyl-2-phenoxyacetamide]
[1]
  AC50: 63.8 nM

## CN(Cc1cccc(-c2ccc(CC3SC(=O)NC3=O)cc2)c1)C(=O)c1cccn1C (centres unmarked) [Example 8, N-[4′-(2,4-dioxothiazolidin-5-ylmethyl)biphenyl-3-ylmethyl]-N-methyl-1-methyl-1H-pyrrole-2-carboxamide]
[1]
  AC50: 307 nM

## CN(Cc1cccc(-c2ccc(CC3SC(=O)NC3=O)cc2)c1)C(=O)C12CC3CC(CC(C3)C1)C2 (centres unmarked) [Example 9, N-[4′-(2,4dioxothiazolidin-5-ylmethyl)biphenyl-3-ylmethyl]-N-methyladamantane-1-carboxamide]
[1]
  AC50: 182 nM

## CN(Cc1cccc(-c2ccc(CC3SC(=O)NC3=O)cc2)c1)C(=O)c1ccc(-c2ccccc2)cc1 (centres unmarked) [Example 10, N-[4′-(2,4-dioxothiazolidin-5-ylmethyl)biphenyl-3-ylmethyl]-N-methylbiphenyl-4-carboxamide]
[1]
  AC50: 3.3 nM
[2]
  Kd: 60 nM

## CN(Cc1cccc(-c2ccc(CC3SC(=O)NC3=O)cc2)c1)C(=O)c1cc2ccccc2s1 (centres unmarked) [Example 11, N-[4′-(2,4-dioxothiazolidin-5-ylmethyl)biphenyl-3-ylmethyl]-N-methylbenzo[b]thio-phene-2-carboxamide]
[1]
  AC50: 15.1 nM
[2]
  Kd: 375 nM

## CN(Cc1cccc(-c2ccc(CC3SC(=O)NC3=O)cc2)c1)C(=O)CCCCC(=O)c1ccccc1 (centres unmarked) [Example 12, N-[4′-(2,4-dioxothiazolidin-5-ylmethyl)biphenyl-3-ylmethyl]-N-methyl-6-oxo-6-phenylhexanamide]
[1]
  AC50: 3.2 nM
[2]
  Kd: 60 nM

## CN(Cc1cccc(-c2ccc(CC3SC(=O)NC3=O)cc2)c1)C(=O)c1ccc(N(C)C)c2ccccc12 (centres unmarked) [Example 13, 4dimethylamino-N-[4′-(2,4-dioxothiazolidin-5-ylmethyl)biphenyl-3-ylmethyl]-N-methylnaphthalene-1-carboxamide]
[1]
  AC50: 36.7 nM
[2]
  Kd: 500 nM

## CN(Cc1cccc(-c2ccc(CC3SC(=O)NC3=O)cc2)c1)C(=O)c1ccc(S(C)(=O)=O)cc1 (centres unmarked) [Example 14, N-[4′-(2,4-dioxothiazolidin-5-ylmethyl)biphenyl-3-ylmethyl]-4-methanesulphonyl-N-methylbenzamide]
[1]
  AC50: 143 nM

## CN(Cc1cccc(-c2ccc(CC3SC(=O)NC3=O)cc2)c1)C(=O)c1ccc(C(=O)c2ccccc2)cc1 (centres unmarked) [Example 15, N-[4′-(2,4-dioxothiazolidin-5-ylmethyl)biphenyl-3-ylmethyl]-N-methyl-4-(1-phenylmethanoyl)benzamide]
[1]
  AC50: 5 nM
[2]
  Kd: 60 nM

## COCCOCOc1ccc2cc(C(=O)N(C)Cc3cccc(-c4ccc(CC5SC(=O)NC5=O)cc4)c3)ccc2c1 (centres unmarked) [Example 16, 6-(2-methoxyethoxymethoxy)-N-[4′-(2,4-dioxothiazolidin-5-ylmethyl)biphenyl-3-ylmethyl]-N-methylnapthalene-2-carboxamide]
[1]
  AC50: 0.55 nM
[2]
  Kd: 4 nM

## CN(Cc1cccc(-c2ccc(CC3SC(=O)NC3=O)cc2)c1)C(=O)c1ccc2cc(O)ccc2c1 (centres unmarked) [Example 17, 6-hydroxy-N-[4′-(2,4-dioxothiazolidin-5-ylmethyl)biphenyl-3-ylmethyl]-N-methylnaphthalene-2-carboxamide]
[1]
  AC50: 3.8 nM
[2]
  Kd: 15 nM

## CSc1ccc(C(=O)N(C)Cc2cccc(-c3ccc(CC4SC(=O)NC4=O)cc3)c2)cc1 (centres unmarked) [Example 18, N-[4′-(2,4-dioxothiazolidine-5-ylmethyl)biphenyl-3-ylmethyl]-N-methyl-4-methylsulphanylbenzamide]
[1]
  AC50: 42.5 nM

## CCO[C@@H](Cc1ccc(-c2cccc(CN(C)C(=O)c3ccc(-c4ccccc4)cc3)c2)cc1)C(=O)O [Example 19, (S)-3-(3′-{[(1-biphenyl-4-ylmethanoyl)methylamino]methyl}biphenyl-4-yl)-2-ethoxypropionic acid]
[1]
  AC50: 2.9 nM
[2]
  Kd: 8 nM

## CCO[C@@H](Cc1ccc(-c2cccc(CN(C)C(=O)CCCCC(=O)c3ccccc3)c2)cc1)C(=O)O [Example 20, (S)-2-ethoxy-3-(3′-{[methyl(6-oxo-6-phenylhexanoyl)amino]methyl}biphenyl-4-yl)propionic acid]
[1]
  AC50: 7.7 nM
[2]
  Kd: 9.5 nM

## CN(C(=O)Nc1ccc2ccccc2c1)c1cccc(-c2ccc(CC3SC(=O)NC3=O)cc2)c1 (centres unmarked) [Example 21, 1-[4′-(2,4-dioxothiazolidin-5-ylmethyl)biphenyl-3-yl]-1-methyl-3-naphthalen-2-ylurea]
[1]
  AC50: 22 nM

## CN(C)c1ccc(NC(=O)N(C)c2cccc(-c3ccc(CC4SC(=O)NC4=O)cc3)c2)cc1 (centres unmarked) [Example 22, 3-(4-dimethylaminophenyl)-1-[4′-(2,4-dioxothiazolidin-5-ylmethyl)biphenyl-3-yl]-1-methylurea]
[1]
  AC50: 4.2 nM

## CCO[C@@H](Cc1ccc(-c2cccc(CN(C)C(=O)c3ccc4cc(OCOCCOC)ccc4c3)c2)cc1)C(=O)O [Example 23, (S)-2-ethoxy-3-{3′-[({1-[6-(2-methoxyethoxymethoxy)naphthalen-2-yl]methanoyl}methylamino)methyl]biphenyl-4-yl}propionic acid]
[1]
  AC50: 1 nM
